Results as given in patent publication US6194173A, “Binding proteins for phosphoinositides, GRP1 or general receptor 1 for phophoinositide” (priority 1999, dated 2001).
“Also recorded” adds a separate entry of the source.

What was measured:
GRP Sec7 homology domain = experiment: Effect of phosphoinositides on ARF1 exchange catalyzed by the GRP Sec7 domain; type: biochemical, mouse; conditions: 25 μM PtdIns(3,4,5)P3
GRP = molecular target: T1, GRP (Mus musculus, UniProt O08967); experiment: Effect of phosphoinositides on GRP-catalyzed ARF1 guanine nucleotide exchange; type: biochemical; conditions: for stimulation of ARF1 exchange activity in the presence of GRP: 25 μM lipid, 0.15 μM GRP
T1 construct: GST (N, cleaved yes); made in house; host or cells: GRP from pGEX-4T; ARF1 from baculovirus-infected Sf-9 cells
T1 sequence (O08967 1-399): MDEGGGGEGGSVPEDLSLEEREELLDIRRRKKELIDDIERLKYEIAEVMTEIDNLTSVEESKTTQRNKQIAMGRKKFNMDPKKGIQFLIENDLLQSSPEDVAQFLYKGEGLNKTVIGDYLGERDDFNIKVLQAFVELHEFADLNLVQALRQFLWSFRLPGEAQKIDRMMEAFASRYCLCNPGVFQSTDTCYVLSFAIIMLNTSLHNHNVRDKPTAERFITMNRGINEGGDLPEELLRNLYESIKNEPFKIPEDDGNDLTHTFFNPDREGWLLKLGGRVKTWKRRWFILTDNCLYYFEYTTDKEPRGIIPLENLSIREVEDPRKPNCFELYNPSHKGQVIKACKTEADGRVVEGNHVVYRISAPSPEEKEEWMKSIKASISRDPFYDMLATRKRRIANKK

PH domain of GRP = molecular target: T2, PH domain of GRP (Mus musculus, UniProt O08967); experiment: Binding specificity of the GRP PH domain for 32P-labeled phosphoinositides (GST-PH on nitrocellulose); design: species or system murine; conditions: GST-PH, 25,000 cpm lipid; relative to GST
T2 sequence (O08967 239-399): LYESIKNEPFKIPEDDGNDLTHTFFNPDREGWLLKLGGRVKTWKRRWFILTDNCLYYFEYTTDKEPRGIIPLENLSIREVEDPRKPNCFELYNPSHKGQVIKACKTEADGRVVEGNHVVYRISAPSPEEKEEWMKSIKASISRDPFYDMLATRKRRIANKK
Procedure: The 3'-phosphatidylinositol probes labeled at the 3' position were generated using GST-p110 PI3-kinase purified from recombinant bacculovirus infected Sf 9 cells, using either purified phosphatidylinositol phosphates or crude brain lipid. Briefly, 20 mg phospholipid in chloroform was dried under N2 and resuspended in […] of buffer containing Tris-HCl pH 7.4, EDTA 1 mM and incubated in […] phopsphorylation media containing 20 mM Tris-HCl pH 7.4, 100 mM NaCl, 10 mM MgCl2, 0.5 mM EGTA. 0.2 mM adenosine, GST-p110 and 5-10 mCi [g-^32 P]ATP (5 Ci/umol). The reaction was carried out for 2 h at room temperature, quenched by addition of 0.2 ml of 1M HCl, followed by 0.5 ml of chloroform:methanol (1:1). The organic phase containing phospholipids was washed 4 times with 0.4 ml of methanol:HCl (1: 1) and stored at -70° C. until use. Just before use, the lipid was dried under a stream of nitrogen with phosphatidyl serine corresponding to a final concentration of 20 mg/ml. The identities of the PI3-P, PI3,4-P2 and PI3,4,5-P3 were confirmed by TLC and HPLC analysis.
To generate the GST fusion proteins, PCR reactions using the primers: […] (SEQ ID NO:9) and […] (SEQ ID NO:10) for the GST-N construct, […] (SEQ ID NO:11) and […] (SEQ ID NO:12) for the GST-Sec7 construct, […] (SEQ ID NO:13) and […] (SEQ ID NO:14) for the GSTPH construct, and […] […] The filters were washed four times with 1 mL assay buffer and counted in a scintillation counter.
In order to determine whether PI(3,4,5)P3 binding could be localized to specific sequences within the GRP structure, GST fusion proteins containing either residues 239 to 399 (PH domain), residues 52 to 260 (Sec7 domain), or residues 5 to 71, full length GRP residues 5-399 were expressed in bacteria and purified on glutathione-conjugated beads. […] 150 pmol of the proteins were spotted on nitrocellulose filters, incubated with [^32 P]PI(3,4,5)P3 and the amount of bound lipid was determined as described. […] Nitrocellulose filters with GST-PH were incubated with 25,000 cpm of each of the phospholipids and the amount of bound lipid determined as described above. […]

[1] = molecular target: T3, proteins encoded by both brain and adipocyte cDNA clones (GRP) (Mus musculus, UniProt O08967); experiment: Binding of 32P-labeled phosphoinositides to protein of isolated cDNA clones on nitrocellulose filters (library screen); conditions: library screening conditions
T3 construct: lack four residues
T3 sequence (O08967 5-399): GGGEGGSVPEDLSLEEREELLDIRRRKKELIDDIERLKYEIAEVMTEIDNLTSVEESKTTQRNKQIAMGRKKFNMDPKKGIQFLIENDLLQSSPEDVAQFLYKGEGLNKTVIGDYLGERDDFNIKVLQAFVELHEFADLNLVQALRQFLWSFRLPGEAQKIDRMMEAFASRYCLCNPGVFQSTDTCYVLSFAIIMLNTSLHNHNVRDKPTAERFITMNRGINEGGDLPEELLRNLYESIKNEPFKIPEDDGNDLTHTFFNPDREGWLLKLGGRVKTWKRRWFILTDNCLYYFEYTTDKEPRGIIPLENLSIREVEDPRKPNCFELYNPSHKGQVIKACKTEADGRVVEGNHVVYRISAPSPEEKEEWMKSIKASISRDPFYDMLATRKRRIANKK

maximal activation of GRP-catalyzed ARF1 exchange (GRP; 0.1 μM GRP1, 40 minutes): 3-4 fold
EC50 (GRP; 0.1 μM GRP1, 40 minutes, read-out: half maximal stimulation of GRP-catalyzed ARF1 [^35 S]GTPγS binding): ~1000 nM
stimulation of ARF1 exchange activity in the presence of GRP (GRP; 0.1% cholate (high negative charge)): stimulated
binding of labeled phosphoinositide to the GRP PH domain (PH domain of GRP): specifically
binding of labeled phosphoinositide to the cDNA clone protein [1]: bound
Substance: Phosphatidylinositol (3,4,5)-Trisphosphate [PtdIns(3,4,5)P3]
effect on ARF exchange activity catalyzed by the GRP Sec7 homology domain (GRP Sec7 homology domain): no effect
stimulation of ARF1 exchange activity in the presence of GRP (GRP; 0.05% cholate and 0.05% CHAPS (low negative charge)): selectively stimulated; also recorded: Selectivity
